Inhibition and IC50 data for 18 molecules are collected here from patent US10821100B2, “Triazolone compounds as mPGES-1 inhibitors” (Glenmark Pharmaceuticals S.A., priority 2012, dated 2020).

Some results are limits rather than exact numbers.

The target of the experiment is T1, Recombinant human mPGES-1 (Homo sapiens, UniProt O14684).
T1 construct: made in house; host or cells: CHO cells (crude microsomal fractions)
T1 sequence (O14684 1-152): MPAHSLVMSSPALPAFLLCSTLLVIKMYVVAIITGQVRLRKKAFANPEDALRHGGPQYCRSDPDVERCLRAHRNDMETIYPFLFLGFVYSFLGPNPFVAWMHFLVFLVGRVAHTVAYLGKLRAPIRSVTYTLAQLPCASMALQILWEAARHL
The experiment can be described thus: In-vitro screening of mPGES-1 inhibitors (inhibition of PGE2 formation from PGH2, HTRF detection). The class given is biochemical. The following applies: mPGES-1 enzyme; for inhibition at 1 µM: 1 μM test compound, read-out: Percentage inhibition at 1 μM; for inhibition at 1 µM / inhibition at 10 µM: crude microsomal fractions; for inhibition at 10 µM: 10 μM test compound, read-out: Percentage inhibition at 10 μM; for IC50: class symbols. The method, boiled down: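 PGH2-to-PGE2 isomerization run for 1 min with 15 μM PGH2 after 10 min compound preincubation with microsomal enzyme (40–60 μg/mL) and 2.5 mM GSH, pH buffer 0.1 M potassium phosphate with EDTA. Stannous chloride quench, HTRF PGE2 readout, IC50 fitted against uninhibited reaction.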

As a reminder, the inhibition is the relative decrease from the control value, in per cent. For the molecule `CC(C)(C)C(=O)NCc1ccc(Cl)c(-c2nn(-c3ccc(F)cc3F)c(=O)[nH]2)c1F` [Example-85, N-(4-Chloro-j-(1-(2,4-difluorophenyl)-5-oxo-4,5-dihydro-1H-1,2,4-triazol-3-yl)-2-fluorobenzyl)pivalamide], the inhibition at 1 µM was found to be 22.6% and the inhibition at 10 µM was found to be 69.3%.

A word on the IC50: it is the point on the concentration scale where inhibition reaches its midpoint. For the molecule `COc1ccc(-n2nc(-c3c(Cl)ccc(CNC(=O)C(C)(C)C)c3F)[nH]c2=O)cc1` [Example-86, N-(4-Chloro-2-fluoro-3-(1-(4-methoxyphenyl)-5-oxo-4,5-dihydro-1H-1,2,4-triazol-3-yl)benzyl)pivalamide], the inhibition at 1 µM stood at 79.9%, the inhibition at 10 µM was 96.7% and the IC50 was > 0.1 µM.

Take `CC(C)(C)C(=O)NCc1ccc(Cl)c(-n2nc(-c3ccc(C(F)(F)F)cc3F)[nH]c2=O)c1F` [Example-87, N-(4-Chloro-2-fluoro-3-(3-(2-fluoro-4-(trifluoromethyl)phenyl)-5-oxo-4,5-dihydro-1H-1,2,4-triazol-1-yl)benzyl)pivalamide]: the inhibition at 1 µM was determined as 93.4%, the inhibition at 10 µM was determined as 99.2% and the concentration for half-maximal inhibition (IC50) lay within 0.05 to 0.1 µM.

Consider `CC(C)(C)C(=O)NCc1ccc(Cl)c(-n2nc(-c3c(F)cccc3Cl)[nH]c2=O)c1F` [Example-88, N-(4-Chloro-3-(3-(2-chloro-6-fluorophenyl)-5-oxo-4,5-dihydro-1H-1,2,4-triazol-1-yl)-2-fluorobenzyl)pivalamide], for which the inhibition at 1 µM was 3.34% and the inhibition at 10 µM is 39.2%.

Take `CC(C)(C)C(=O)NCc1ccc(Cl)c(-c2nn(-c3ccc(C#N)cc3)c(=O)[nH]2)c1F` [Example-89, N-(4-chloro-3-(1-(4-cyanophenyl)-5-oxo-4,5-dihydro-1H-1,2,4-triazol-3-yl)-2-fluorobenzyl)pivalamide]: the inhibition at 1 µM is 95.3%, the inhibition at 10 µM amounted to 99.1% and the IC50 is < 0.05 µM.

Consider `CC(C)(C)C(=O)NCc1ccc(Cl)c(-n2nc(-c3ccc(Cl)cc3F)[nH]c2=O)c1F` [Example-90, N-(4-Chloro-3-(3-(4-chloro-2-fluorophenyl)-5-oxo-4,5-dihydro-1H-1,2,4-triazol-1-yl)-2-fluorobenzyl)pivalamide], for which the inhibition at 1 µM was 81.7%, the inhibition at 10 µM amounted to 97.2% and the IC50 was > 0.1 µM.

As to `O=C(NCc1ccc(Cl)c(-n2nc(-c3ccc(Cl)cc3F)[nH]c2=O)c1)C1CC1` [Example-91, N-(4-Chloro-3-(3-(4-chloro-2-fluorophenyl)-5-oxo-4,5-dihydro-1H-1,2,4-triazol-1-yl)benzyl)cyclopropanecarboxamide], the inhibition at 1 µM turned out to be 66.2% and the inhibition at 10 µM stood at 94.3%.

Consider `O=C(NCc1ccc(Cl)c(-n2nc(-c3ccc(C(F)(F)F)cc3F)[nH]c2=O)c1)C1CC1` [Example-92, N-(4-Chloro-3-(3-(2-fluoro-4-(trifluoromethyl)phenyl)-5-oxo-4,5-dihydro-1H-1,2,4-triazol-1-yl)benzyl)cyclopropanecarboxamide], for which the inhibition at 1 µM was 76%, the inhibition at 10 µM was 99.4% and the concentration for half-maximal inhibition (IC50) is > 0.1 µM.

`CC(C)(C)C(=O)NCc1ccc(Cl)c(-n2nc(-c3ccc(C(F)(F)F)cc3)[nH]c2=O)c1F` [Example-93, N-(4-Chloro-2-fluoro-3-(5-oxo-3-(4-(trifluoromethyl)phenyl)-4,5-dihydro-1H-1,2,4-triazol-1-yl)benzyl)pivalamide]: the inhibition at 1 µM was 96.8%, the inhibition at 10 µM was determined as 99.6% and the IC50 was < 0.05 µM.

As to `CC(C)(C)C(=O)NCc1ccc(Cl)c(-c2nn(-c3ccc(C(F)(F)F)cn3)c(=O)[nH]2)c1F` [Example-94, N-(4-Chloro-2-fluoro-3-(5-oxo-1-(5-(trifluoromethyl)pyridin-2-yl)-4,5-dihydro-1H-1,2,4-triazol-3-yl)benzyl)pivalamide], the inhibition at 1 µM worked out at 87%, the inhibition at 10 µM was 100% and the 50% inhibitory concentration (IC50) was > 0.1 µM.

For the molecule `CC(C)(C)C(=O)NCc1ccc(Cl)c(-c2nn(-c3ccc(C(F)(F)F)nc3)c(=O)[nH]2)c1F` [Example-95, N-(4-Chloro-2-fluoro-3-(5-oxo-1-(6-(trifluoromethyl)pyridin-3-yl)-4,5-dihydro-1H-1,2,4-triazol-3-yl)benzyl)pivalamide], the inhibition at 1 µM was found to be 98.7%, the inhibition at 10 µM turned out to be 99% and the IC50 was < 0.05 µM.

Take `O=c1[nH]c(-c2cc(S(=O)(=O)NC3CC3)ccc2Cl)nn1-c1ccc(C(F)(F)F)cc1` [Example-96, 4-Chloro-N-cyclopropyl-3-(5-oxo-1-(4-(trifluoromethyl)phenyl)-4,5-dihydro-1H-1,2,4-triazol-3-yl)benzenesulfonamide]: the inhibition at 1 µM was determined as 52.2% and the inhibition at 10 µM amounted to 68.7%.

For the molecule `O=c1[nH]c(-c2cc(S(=O)(=O)NC3CC3)ccc2Cl)nn1-c1ccc(Cl)cc1` [Example-97, 4-Chloro-3-(1-(4-chlorophenyl)-5-oxo-4,5-dihydro-1H-1,2,4-triazol-3-yl)-N-cyclopropylbenzenesulfonamide], the inhibition at 1 µM was determined as 20.2% and the inhibition at 10 µM was found to be 6.88%.

Regarding `CC(C)(C)C(=O)NCc1ccc(Cl)c(-c2nn(-c3ccc(Cl)cc3)c(=O)[nH]2)c1F` [Example-98, N-(4-Chloro-3-(1-(4-chlorophenyl)-5-oxo-4,5-dihydro-1H-1,2,4-triazol-3-yl)-2-fluorobenzyl)pivalamide], the inhibition at 1 µM is 97.5%, the inhibition at 10 µM turned out to be 99.5% and the half-maximal inhibitory concentration (IC50) was < 0.05 µM.

`O=C(NCc1ccc(Cl)c(-c2nn(-c3ccc(C(F)(F)F)cc3)c(=O)[nH]2)c1)C(F)(F)F` [Example-99, N-(4-Chloro-3-(5-oxo-1-(4-(trifluoromethyl)phenyl)-4,5-dihydro-1H-1,2,4-triazol-3-yl)benzyl)-2,2,2-trifluoroacetamide]: the inhibition at 1 µM was 95.3%, the inhibition at 10 µM was 98.5% and the half-inhibitory concentration (IC50) is < 0.05 µM.

With `CC(C)(C)C(=O)NCc1ccc(Cl)c(-c2nn(-c3ccc(C(F)(F)F)cc3)c(=O)[nH]2)c1` [Example-100, N-(4-Chloro-3-(5-oxo-1-(4-(trifluoromethyl)phenyl)-4,5-dihydro-1H-1,2,4-triazol-3-yl)benzyl)pivalamide], the inhibition at 1 µM came to 100%, the inhibition at 10 µM came out at 98.6% and the half-maximal inhibitory concentration (IC50) is < 0.05 µM.

Consider `O=C(NCc1ccc(Cl)c(-c2nn(-c3ccc(C(F)(F)F)cc3)c(=O)[nH]2)c1)[C@H]1CCCO1` [Example-101, (R)—N-(4-Chloro-3-(5-oxo-1-(4-(trifluoromethyl)phenyl)-4,5-dihydro-1H-1,2,4-triazol-3-yl)benzyl)tetrahydrofuran-2-carboxamide], for which the inhibition at 1 µM is 95%, the inhibition at 10 µM worked out at 98.2% and the IC50 was < 0.05 µM.

As to `O=c1[nH]c(-c2cc(CNS(=O)(=O)C3CC3)ccc2Cl)nn1-c1ccc(C(F)(F)F)cc1` [Example-102, N-(4-Chloro-3-(5-oxo-1-(4-(trifluoromethyl)phenyl)-4,5-dihydro-1H-1,2,4-triazol-3-yl)benzyl)cyclopropanesulfonamide], the inhibition at 1 µM was found to be 96.5%, the inhibition at 10 µM was 98% and the IC50 is < 0.05 µM.
